Reference: ChEMBL document CHEMBL1201862, “PubChem BioAssay data set” (2004)
Values belong to the compound of their own block, whether it stands above or below them. The source made the active and inactive calls.

Key:
[1] = target: T1, Polyadenylate-binding protein 1 (Homo sapiens, UniProt P11940); test: MLLE binding blockers, Cy5 peptide tracer – biochemical, fluorescence polarization, Cy5-PAM2 peptide, secondary, miRNA deadenylation inhibitor project, dose response (AID 602260); format: functional; details: read-out: IC50_Mean
[2] = target: T1, Polyadenylate-binding protein 1; test: MLLE domain peptide-binding blockers, IC50 – biochemical, fluorescence polarization, FITC-PAM2 peptide, dose response (AID 602259); format: functional; details: read-out: IC50_Mean
Protein skinhead-1 = target: T2, Protein skinhead-1 (Caenorhabditis elegans, UniProt P34707); format: functional
T2 sequence (P34707 whole entry): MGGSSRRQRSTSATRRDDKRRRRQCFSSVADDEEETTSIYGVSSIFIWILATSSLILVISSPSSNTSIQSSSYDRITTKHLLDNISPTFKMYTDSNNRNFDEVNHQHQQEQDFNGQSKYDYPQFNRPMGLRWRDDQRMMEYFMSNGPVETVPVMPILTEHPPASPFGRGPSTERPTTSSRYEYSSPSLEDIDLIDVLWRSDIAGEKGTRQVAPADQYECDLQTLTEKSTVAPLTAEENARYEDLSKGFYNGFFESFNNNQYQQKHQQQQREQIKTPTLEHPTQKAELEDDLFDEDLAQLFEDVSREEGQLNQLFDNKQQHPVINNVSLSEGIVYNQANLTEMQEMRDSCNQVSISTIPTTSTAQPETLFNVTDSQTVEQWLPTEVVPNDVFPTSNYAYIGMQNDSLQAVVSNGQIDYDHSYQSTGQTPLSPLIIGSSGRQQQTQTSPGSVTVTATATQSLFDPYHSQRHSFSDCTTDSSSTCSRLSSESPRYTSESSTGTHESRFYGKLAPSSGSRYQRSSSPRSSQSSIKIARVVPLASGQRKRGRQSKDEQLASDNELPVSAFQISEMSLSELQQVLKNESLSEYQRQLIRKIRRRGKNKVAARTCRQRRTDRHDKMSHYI

[3] = target: Glucose-6-phosphate 1-dehydrogenase (Homo sapiens, UniProt P11413); test: inhibition of Homo sapiens G6PD, dose series – biochemical, fluorescence, selectivity assay for P. falciparum G6PD inhibitor project, dose response (AID 504792); format: functional
[4] = target: T3, Rac GTPase-activating protein 1 (Homo sapiens, UniProt Q9H0H5); test: blockers of MgcRacGAP-driven Rac1 GTP hydrolysis – biochemical, ADP Hunter fluorescence, primary and confirmatory, confirmation (AID 624330); format: functional
T3 sequence (Q9H0H5 whole entry): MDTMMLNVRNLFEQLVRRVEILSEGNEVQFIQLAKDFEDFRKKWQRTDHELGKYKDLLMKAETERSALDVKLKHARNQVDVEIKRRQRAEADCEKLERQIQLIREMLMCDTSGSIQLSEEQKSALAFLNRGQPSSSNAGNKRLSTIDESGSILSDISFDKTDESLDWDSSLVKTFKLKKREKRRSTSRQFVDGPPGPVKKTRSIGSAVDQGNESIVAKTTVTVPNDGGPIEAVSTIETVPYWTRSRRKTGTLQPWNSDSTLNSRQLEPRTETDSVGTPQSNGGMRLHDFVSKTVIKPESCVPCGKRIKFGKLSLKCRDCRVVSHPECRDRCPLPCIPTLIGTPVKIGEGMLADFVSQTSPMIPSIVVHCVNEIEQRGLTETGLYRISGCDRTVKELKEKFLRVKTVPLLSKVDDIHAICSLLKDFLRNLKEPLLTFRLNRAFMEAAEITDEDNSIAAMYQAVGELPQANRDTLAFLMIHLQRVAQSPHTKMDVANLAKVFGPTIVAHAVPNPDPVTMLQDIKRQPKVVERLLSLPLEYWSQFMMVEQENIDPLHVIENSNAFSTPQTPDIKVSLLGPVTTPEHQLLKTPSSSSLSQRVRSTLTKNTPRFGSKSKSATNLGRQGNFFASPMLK

[5] = target: Beta-2 adrenergic receptor (Homo sapiens, UniProt P07550); test: ADRB2 activation measured by internalization – cell-based, FAP fluorogen, flow cytometry, cherry pick 1, dose response (AID 588763); format: functional
HEK293 [6] = test: cells; format: functional, cell-based; details: Homo sapiens
HEK293 [7] = test: inhibition of NOD1-driven NF-kB reporter – cell-based, luminescence, uHTS, primary screen (AID 1578); format: functional; details: Homo sapiens
HEK293 [8] = test: cells; format: functional, cell-based; details: Homo sapiens; remark: listed apart in the source
HEK293 [9] = test: NOD2 signaling inhibitors in MDP-stimulated cells, cell-based, uHTS, luminescence (AID 2001); format: functional; details: Homo sapiens
HEK293 [10] = test: cells; format: functional, cell-based; details: Homo sapiens; remark: listed apart in the source
[11] = target: Nucleotide-binding oligomerization domain-containing protein 2 (Homo sapiens, UniProt Q9HC29); test: inhibition of NOD2-driven NF-kB reporter – cell-based, luminescence, uHTS, HEK293 (AID 1566); format: functional
Cytochrome P450 2D6 = Cytochrome P450 2D6 (Homo sapiens, UniProt P10635);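 further: CYP2D6 member of a cytochrome P450 panel assay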
Cytochrome P450 1A2 = target: T4, Cytochrome P450 1A2 (Homo sapiens, UniProt P05177);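 further: PubChem cytochrome P450 panel assay, CYP1A2 panel member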
T4 sequence (P05177 whole entry): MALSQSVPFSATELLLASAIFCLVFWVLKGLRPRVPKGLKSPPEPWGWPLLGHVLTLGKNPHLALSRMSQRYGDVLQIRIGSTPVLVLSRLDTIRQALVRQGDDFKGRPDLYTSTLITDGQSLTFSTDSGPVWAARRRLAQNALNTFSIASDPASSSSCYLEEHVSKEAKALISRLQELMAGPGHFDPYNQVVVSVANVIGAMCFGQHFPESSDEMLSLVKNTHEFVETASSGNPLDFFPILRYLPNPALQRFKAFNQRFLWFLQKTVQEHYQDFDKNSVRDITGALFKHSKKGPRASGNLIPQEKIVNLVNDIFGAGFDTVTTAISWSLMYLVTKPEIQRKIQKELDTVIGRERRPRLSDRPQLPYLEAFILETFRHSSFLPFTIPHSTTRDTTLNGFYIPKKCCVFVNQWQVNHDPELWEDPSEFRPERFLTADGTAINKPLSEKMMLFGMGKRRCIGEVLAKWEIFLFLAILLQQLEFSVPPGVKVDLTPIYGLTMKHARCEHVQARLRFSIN

Cytochrome P450 2C9 = Cytochrome P450 2C9 (Homo sapiens, UniProt P11712)
Cytochrome P450 2C9, sequence (P11712 whole entry): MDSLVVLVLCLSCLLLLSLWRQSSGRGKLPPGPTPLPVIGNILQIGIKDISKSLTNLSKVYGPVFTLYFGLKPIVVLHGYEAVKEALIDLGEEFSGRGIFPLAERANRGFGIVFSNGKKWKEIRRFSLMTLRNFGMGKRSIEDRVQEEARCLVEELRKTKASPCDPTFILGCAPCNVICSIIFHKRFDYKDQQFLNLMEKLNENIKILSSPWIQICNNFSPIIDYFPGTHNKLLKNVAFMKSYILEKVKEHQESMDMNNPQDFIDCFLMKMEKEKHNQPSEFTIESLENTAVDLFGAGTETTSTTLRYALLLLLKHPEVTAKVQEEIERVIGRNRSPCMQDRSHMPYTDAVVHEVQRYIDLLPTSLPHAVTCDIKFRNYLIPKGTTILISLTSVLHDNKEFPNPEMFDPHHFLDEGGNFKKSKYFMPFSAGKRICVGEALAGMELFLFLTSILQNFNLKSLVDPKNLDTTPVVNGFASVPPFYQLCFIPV

Beta-2 adrenergic receptor, sequence (P07550 whole entry): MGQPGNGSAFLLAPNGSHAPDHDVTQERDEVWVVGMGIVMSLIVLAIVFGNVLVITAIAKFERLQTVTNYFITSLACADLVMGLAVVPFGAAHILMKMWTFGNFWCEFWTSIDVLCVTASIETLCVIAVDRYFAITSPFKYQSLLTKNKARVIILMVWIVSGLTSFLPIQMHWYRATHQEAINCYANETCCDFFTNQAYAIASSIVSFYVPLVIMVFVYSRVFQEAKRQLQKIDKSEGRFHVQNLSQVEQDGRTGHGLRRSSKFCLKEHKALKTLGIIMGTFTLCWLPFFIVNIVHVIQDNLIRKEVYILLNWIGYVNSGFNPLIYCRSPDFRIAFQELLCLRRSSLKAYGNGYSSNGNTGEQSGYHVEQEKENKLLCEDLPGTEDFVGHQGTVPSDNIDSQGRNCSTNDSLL
T1 sequence (P11940 whole entry, the tested form may be a part): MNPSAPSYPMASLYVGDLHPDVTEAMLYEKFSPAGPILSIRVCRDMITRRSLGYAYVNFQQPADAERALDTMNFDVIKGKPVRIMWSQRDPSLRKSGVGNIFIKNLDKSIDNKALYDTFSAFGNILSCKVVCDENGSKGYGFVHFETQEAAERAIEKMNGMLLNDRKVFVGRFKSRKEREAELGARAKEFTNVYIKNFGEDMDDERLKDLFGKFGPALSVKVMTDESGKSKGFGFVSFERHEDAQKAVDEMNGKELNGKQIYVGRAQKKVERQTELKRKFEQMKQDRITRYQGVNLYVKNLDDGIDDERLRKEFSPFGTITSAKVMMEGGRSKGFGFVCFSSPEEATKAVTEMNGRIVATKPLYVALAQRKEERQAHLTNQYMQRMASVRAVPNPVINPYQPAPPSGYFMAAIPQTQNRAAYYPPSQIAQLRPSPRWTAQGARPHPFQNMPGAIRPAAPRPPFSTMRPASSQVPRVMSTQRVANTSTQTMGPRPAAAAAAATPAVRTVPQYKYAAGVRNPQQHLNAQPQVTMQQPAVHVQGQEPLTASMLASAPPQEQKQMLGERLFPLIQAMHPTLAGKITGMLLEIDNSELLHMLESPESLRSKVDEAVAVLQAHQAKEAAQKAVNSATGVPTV
Cytochrome P450 2D6, sequence (P10635 whole entry): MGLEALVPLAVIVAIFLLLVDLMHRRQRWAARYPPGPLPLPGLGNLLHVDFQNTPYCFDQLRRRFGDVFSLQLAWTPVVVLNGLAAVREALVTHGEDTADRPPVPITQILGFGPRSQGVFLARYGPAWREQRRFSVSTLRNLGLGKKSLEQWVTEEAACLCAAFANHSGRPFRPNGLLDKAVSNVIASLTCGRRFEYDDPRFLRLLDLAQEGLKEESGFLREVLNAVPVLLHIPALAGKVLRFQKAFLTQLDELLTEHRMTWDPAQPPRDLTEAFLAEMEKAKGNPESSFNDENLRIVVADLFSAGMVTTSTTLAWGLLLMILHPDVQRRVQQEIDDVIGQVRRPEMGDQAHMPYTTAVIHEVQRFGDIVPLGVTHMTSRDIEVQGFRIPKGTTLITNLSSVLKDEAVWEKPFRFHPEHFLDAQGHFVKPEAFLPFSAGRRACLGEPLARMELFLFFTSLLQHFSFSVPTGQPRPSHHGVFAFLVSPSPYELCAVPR
Glucose-6-phosphate 1-dehydrogenase, sequence (P11413 whole entry): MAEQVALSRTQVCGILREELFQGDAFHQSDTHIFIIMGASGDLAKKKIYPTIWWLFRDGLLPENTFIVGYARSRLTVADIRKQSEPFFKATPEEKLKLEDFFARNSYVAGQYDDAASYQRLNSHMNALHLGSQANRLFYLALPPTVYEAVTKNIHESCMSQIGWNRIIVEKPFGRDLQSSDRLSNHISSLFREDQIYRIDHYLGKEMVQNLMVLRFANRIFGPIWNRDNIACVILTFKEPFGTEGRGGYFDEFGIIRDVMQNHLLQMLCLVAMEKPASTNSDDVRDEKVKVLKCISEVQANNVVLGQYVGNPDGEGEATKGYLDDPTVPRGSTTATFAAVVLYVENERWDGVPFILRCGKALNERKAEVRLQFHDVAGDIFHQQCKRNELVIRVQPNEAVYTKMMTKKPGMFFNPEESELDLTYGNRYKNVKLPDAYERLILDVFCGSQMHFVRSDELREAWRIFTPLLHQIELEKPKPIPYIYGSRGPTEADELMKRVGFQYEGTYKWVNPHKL
Nucleotide-binding oligomerization domain-containing protein 2, sequence (Q9HC29 whole entry, the tested form may be a part): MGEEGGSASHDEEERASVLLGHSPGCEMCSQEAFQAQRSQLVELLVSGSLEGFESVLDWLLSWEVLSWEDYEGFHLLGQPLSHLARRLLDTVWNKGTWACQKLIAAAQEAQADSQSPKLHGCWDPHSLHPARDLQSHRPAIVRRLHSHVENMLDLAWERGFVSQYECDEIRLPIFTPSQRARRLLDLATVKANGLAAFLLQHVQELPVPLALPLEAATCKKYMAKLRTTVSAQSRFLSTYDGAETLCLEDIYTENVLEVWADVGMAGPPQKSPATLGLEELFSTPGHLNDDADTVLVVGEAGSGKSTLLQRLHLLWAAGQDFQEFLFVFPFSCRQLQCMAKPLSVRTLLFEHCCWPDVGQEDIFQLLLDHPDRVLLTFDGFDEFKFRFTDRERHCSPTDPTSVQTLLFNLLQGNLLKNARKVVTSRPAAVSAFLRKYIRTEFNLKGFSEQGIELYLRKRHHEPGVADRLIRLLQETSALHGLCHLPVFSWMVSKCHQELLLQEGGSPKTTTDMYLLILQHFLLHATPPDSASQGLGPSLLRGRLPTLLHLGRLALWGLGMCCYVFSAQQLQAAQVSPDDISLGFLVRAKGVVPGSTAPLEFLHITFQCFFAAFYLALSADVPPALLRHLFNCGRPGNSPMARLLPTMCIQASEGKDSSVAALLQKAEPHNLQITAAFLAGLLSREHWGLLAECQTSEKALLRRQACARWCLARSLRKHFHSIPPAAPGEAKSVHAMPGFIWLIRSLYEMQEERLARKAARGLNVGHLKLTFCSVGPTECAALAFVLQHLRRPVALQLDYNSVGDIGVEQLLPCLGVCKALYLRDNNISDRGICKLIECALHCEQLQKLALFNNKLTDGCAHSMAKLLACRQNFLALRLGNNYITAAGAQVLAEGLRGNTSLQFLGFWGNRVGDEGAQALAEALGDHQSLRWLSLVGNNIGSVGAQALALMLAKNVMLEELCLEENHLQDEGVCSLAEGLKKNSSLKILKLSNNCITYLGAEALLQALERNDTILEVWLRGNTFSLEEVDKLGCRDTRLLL

EC50 [5]: 0.0342 µM (active)
SMILES: Cc1cc(C)n2nc(C(=O)Nc3cccc(S(=O)(=O)N(C)c4ccccc4)c3)nc2n1

EC50 [5]: 7.23 µM (active)
SMILES: CCc1ccccc1N(C)S(=O)(=O)c1ccc2ncc(C(=O)O)c(O)c2c1

The next lines start with the compound.

SMILES: c1cc(CNc2ccc3c(c2)OCO3)ccn1
IC50 [1]: > 66 µM (inactive)
IC50 [2]: 23.5 µM (inactive)
IC50 (Protein skinhead-1): > 100 µM (inactive)
IC50 [3]: > 80 µM (inactive)
IC50 [4]: 63.8 µM (active)

SMILES: Cc1ccc2cccc(/N=C/c3c(C)[nH]n(-c4ccccc4)c3=O)c2n1
IC50 (HEK293 [6]): > 20 µM (inactive)
EC50 (HEK293 [7]): 4.72 µM (active)
IC50 (HEK293 [8]): > 20 µM (inactive)
IC50 (HEK293 [9]): 7.67 µM (active)
IC50 (HEK293 [10]): > 20 µM (inactive)
EC50 [11]: > 20 µM (inactive)

SMILES: Oc1nc(-c2ccccc2)cc(C(F)(F)F)n1
AC50 (Cytochrome P450 2D6): inconclusive
AC50 (Cytochrome P450 1A2): 11.2 µM (inconclusive)
AC50 (Cytochrome P450 2C9): 6.31 µM (inconclusive)
